Data reported in ChEMBL document CHEMBL1159289, “Enzyme inhibitors: new and known polybrominated phenols and diphenyl ethers from four Indo-Pacific Dysidea sponges” (J Nat Prod, 1995).
Calls of active or inactive are those of the source. The calls are words filed in the database; no cut-off is given here.

Columns and labels:
[1] = Inhibition of tyrosine-protein kinase pp60v-src
[2] = Inhibition of matrix metalloprotease
[3] = biological target: GMP synthase [glutamine-hydrolyzing] (Homo sapiens) (UniProt P49915); assay: Inhibition of GMPS in human A3.01 cells at 50 uM; type: cell-based
Sequence of GMP synthase [glutamine-hydrolyzing] (Homo sapiens) (P49915 whole entry): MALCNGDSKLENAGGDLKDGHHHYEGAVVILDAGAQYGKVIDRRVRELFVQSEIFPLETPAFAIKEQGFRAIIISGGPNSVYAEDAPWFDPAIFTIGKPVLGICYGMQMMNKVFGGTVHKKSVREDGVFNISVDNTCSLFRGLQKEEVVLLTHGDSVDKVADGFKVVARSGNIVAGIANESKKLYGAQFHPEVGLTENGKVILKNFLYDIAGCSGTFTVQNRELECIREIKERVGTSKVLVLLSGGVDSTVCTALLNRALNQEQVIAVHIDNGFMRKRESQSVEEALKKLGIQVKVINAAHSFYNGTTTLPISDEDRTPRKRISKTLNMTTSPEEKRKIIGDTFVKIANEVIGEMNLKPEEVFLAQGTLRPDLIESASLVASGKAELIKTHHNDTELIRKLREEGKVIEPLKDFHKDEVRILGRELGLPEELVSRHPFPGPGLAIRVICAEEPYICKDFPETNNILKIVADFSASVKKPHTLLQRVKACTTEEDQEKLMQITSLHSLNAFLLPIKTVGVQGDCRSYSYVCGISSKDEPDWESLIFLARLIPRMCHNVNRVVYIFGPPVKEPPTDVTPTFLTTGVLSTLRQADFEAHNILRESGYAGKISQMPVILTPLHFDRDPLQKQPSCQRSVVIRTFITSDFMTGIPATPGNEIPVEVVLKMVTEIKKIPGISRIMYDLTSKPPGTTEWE

[4] = biological target: T1, Polyunsaturated fatty acid lipoxygenase ALOX15 (Homo sapiens, UniProt P16050); assay: Inhibition of 15-lipoxygenase
T1 sequence (P16050 whole entry): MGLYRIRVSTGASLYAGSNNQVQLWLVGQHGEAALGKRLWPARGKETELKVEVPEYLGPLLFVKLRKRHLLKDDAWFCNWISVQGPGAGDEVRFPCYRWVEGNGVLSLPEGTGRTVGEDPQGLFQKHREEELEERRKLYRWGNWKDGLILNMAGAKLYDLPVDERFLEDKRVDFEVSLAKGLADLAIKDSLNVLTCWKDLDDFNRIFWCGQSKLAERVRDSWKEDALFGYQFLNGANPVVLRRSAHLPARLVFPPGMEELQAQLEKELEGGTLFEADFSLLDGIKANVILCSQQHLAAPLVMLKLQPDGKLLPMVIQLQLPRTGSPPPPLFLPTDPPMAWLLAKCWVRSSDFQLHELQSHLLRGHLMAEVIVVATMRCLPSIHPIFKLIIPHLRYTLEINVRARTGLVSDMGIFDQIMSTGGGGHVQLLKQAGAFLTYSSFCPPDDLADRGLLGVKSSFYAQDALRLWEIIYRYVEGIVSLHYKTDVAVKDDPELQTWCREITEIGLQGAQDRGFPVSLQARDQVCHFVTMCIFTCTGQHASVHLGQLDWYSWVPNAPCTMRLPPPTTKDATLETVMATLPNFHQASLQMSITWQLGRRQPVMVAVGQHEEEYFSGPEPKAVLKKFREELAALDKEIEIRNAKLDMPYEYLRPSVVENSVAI

[5] = Inhibition of inosine monophosphate dehydrogenase; set-up: unit not given here
[6] = biological target: T2, Polyunsaturated fatty acid lipoxygenase ALOX15 (Homo sapiens) (UniProt P16050); assay: Inhibition of 15-lipoxygenase at 40 ug/ml; settings: at 40 µg/mL
T2 sequence (whole entry): T1 sequence (P16050 whole entry)

[7] = Inhibition of PKC

Row | SMILES | Activity [1] | Activity [2] | inhibition [3] | IC50 [4] | EC50 [5] | inhibition [6] | Activity [7]
1 | Oc1cc(Br)c(Br)c(Br)c1Oc1ccc(Br)cc1Br | inactive | inactive | 99% | 7.4 µM | 4 |  | 
2 | Oc1cc(Br)cc(Br)c1Oc1ccc(Br)cc1Br | inactive | inactive | 56% |  | 5.71 |  | 
3 | COc1cc(Br)cc(Br)c1Oc1cc(Br)cc(Br)c1O | inactive |  |  |  |  |  | 
4 | Oc1cc(Br)cc(Br)c1Oc1c(O)cc(Br)c(Br)c1Br |  |  |  |  |  | 100% | 
5 | Oc1c(Br)cc(Br)cc1Oc1c(O)c(Br)c(Br)c(Br)c1Br | inactive | inactive | 96% | 1.3 µM | 2.79 |  | inactive
6 | Oc1cc(Br)c(Br)c(Br)c1Oc1cc(Br)cc(Br)c1O | inactive | inactive | 89% |  |  |  | 
7 | Oc1c(Oc2ccc(Br)cc2Br)cc(Br)c(Br)c1Br | inactive | inactive | 71% | 7.4 µM | 4.4 |  | 
8 | Oc1c(Br)cc(Br)cc1Oc1ccc(Br)cc1Br | inactive |  |  |  |  |  | 
9 | Oc1c(Br)cc(Br)cc1Oc1c(Br)cc(Br)c(Br)c1O | inactive | inactive | 70% | 2.5 µM | 7.8 |  | 
10 | COc1c(Br)cc(Br)cc1Oc1c(O)cc(Br)cc1Br | inactive |  |  |  |  |  | 
